Measured values taken from paper PMC10406627 (The Journal of Biological Chemistry, 2023).

Target: T1, N4CMT79–324 (Adineta vaga, UniProt A0AAB0B2A1)
T1 sequence (A0AAB0B2A1 2-247): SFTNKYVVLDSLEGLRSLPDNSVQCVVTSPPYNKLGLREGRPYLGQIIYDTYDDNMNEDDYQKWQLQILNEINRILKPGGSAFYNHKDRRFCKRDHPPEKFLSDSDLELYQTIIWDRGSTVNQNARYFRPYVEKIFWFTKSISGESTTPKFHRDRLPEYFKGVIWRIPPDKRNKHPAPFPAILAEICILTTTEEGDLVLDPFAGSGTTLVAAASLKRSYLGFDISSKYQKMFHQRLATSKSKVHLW
Test: X-ray crystal structure, […] A, space group C222_[…]
Conditions: SAM-binding site; 600 uM sinefungin preincubated, no DNA

Structure (SMILES): Nc1ncnc2c1ncn2[C@@H]1O[C@H](C[C@@H](N)CC[C@H](N)C(=O)O)[C@@H](O)[C@H]1O [sinefungin]
- X-ray crystal structure, 1.49 A, space group C222_1: sinefungin binds in the SAM-binding site, and its adenosyl moiety is solvent-exposed on the surface
